pEC50: −log10 of the molar value.
Biological target: FXR (Homo sapiens (Human), UniProt Q96RI1)
Assay: FXR Agonist Assay (Gaussia luciferase reporter)
Type: cell-based
Settings: cells incubated with compound at 37° C. for 20 hours; Gaussia luciferase luminescence; 10-point dose-response in duplicate
Method: Starting from 3.33 mM of compound in DMSO solution, a 10-point 3-fold serial dilution was made by diluting 5 μL of compound into 10 μL of DMSO. The serially diluted compound was then diluted 1:33 into DMEM. This medium was then diluted ten-fold into the culture medium with the cells (10 μL/well). All concentration points are assayed in duplicate. Plates were incubated at 37° C. for 20 hours. After the incubation, 20 μL of culture medium were removed from each well and mixed with 50 μL of assay solution (Pierce™ Gaussia Luciferase Flash Assay Kit). The luminescence was measured immediately after addition of the Luc substrate with an Envision microplate reader. The raw data was uploaded to CDD and dose-response curves were generated using the Levenberg-Marquardt algorithm integrated into CDD. A negative control DMSO is included on each plate and used to normalize the data with the CDD built-in normalization function.

Chain of FXR (Q96RI1 whole entry, species assumed): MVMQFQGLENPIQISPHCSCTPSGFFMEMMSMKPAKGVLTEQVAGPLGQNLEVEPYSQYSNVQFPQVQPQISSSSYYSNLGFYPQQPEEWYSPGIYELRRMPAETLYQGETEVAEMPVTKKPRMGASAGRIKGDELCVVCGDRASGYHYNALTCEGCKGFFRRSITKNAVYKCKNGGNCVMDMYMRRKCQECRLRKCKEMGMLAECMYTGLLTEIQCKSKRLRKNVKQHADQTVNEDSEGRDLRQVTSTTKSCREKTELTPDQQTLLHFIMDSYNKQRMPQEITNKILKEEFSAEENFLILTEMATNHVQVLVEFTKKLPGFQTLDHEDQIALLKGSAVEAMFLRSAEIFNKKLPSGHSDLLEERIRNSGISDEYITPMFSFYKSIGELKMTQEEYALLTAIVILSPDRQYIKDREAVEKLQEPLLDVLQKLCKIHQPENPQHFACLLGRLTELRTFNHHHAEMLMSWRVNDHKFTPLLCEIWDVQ

SMILES | pEC50
CCOC(=O)C1=CN(C(=O)c2ccc(F)c(F)c2)CC(C)(C)c2c(C)n[nH]c21 [Example 2, (E)-ethyl 6-(3,4-difluorobenzoyl)-3,4,4-trimethyl-1,4,5,6-tetrahydropyrazolo[3,4-d]azepine-8-carboxylate] | > 6.70
CCOC(=O)C1=CN(C(=O)c2ccc(F)c(F)c2)CC(C)(C)c2c(-c3ccc(F)cc3)n[nH]c21 [Example 3, (E)-ethyl 6-(3,4-difluorobenzoyl)-3-(4-fluorophenyl)-4,4-dimethyl-1,4,5,6-tetrahydropyrazolo[3,4-d]azepine-8-carboxylate] | > 6.70
CCOC(=O)C1=CN(C(=O)c2ccc(F)c(F)c2)CC(C)(C)c2cn[nH]c21 [Example 4, (E)-ethyl 6-(3,4-difluorobenzoyl)-4,4-dimethyl-1,4,5,6-tetrahydropyrazolo[3,4-d]azepine-8-carboxylate] | 6.00 to 6.70
CCOC(=O)C1=CN(C(=O)c2ccc(F)c(F)c2)CC(C)(C)c2c(C(C)C)n[nH]c21 [Example 5] | > 6.70
CC(C)OC(=O)C1=CN(C(=O)c2ccc(F)c(OCCN3CCOCC3)c2)CC(C)(C)c2c(C(F)(F)F)n[nH]c21 [Example 6] | 6.00 to 6.70
CC(C)OC(=O)C1=CN(C(=O)c2cccc(OCCN3CCOCC3)c2)CC(C)(C)c2c(C(F)(F)F)n[nH]c21 [Example 7] | 6.00 to 6.70
CC(C)NC(=O)C1=CN(C(=O)c2ccc(OCCN3CCOCC3)cc2)CC(C)(C)c2c(C(F)(F)F)n[nH]c21 [Example 8] | > 6.70
CC(C)OC(=O)C1=CN(C(=O)c2ccc(OCCCN3CCOCC3)cc2)CC(C)(C)c2c(C(F)(F)F)n[nH]c21 [Example 9] | > 6.70
CC(=O)c1n[nH]c2c1C(C)(C)CN(C(=O)c1ccc(F)c(F)c1)C=C2C(=O)OC(C)C [Example 10] | > 6.70
CC(C)OC(=O)C1=CN(C(=O)c2cc(F)c(F)cc2Cl)CC(C)(C)c2c(C(F)(F)F)n[nH]c21 [Example 11] | > 6.70
CC(C)OC(=O)C1=CN(C(=O)c2ccc(F)c(CN3CCOCC3)c2)CC(C)(C)c2c(C(F)(F)F)n[nH]c21 [Example 12] | > 6.70
CC(C)OC(=O)C1=CN(C(=O)c2ccc(OCCN3CCOCC3)cc2)CC(C)(C)c2c(C(F)(F)F)n[nH]c21 [Example 13] | > 6.70
CC(C)NC(=O)C1=CN(C(=O)c2ccc(F)c(F)c2)CC(C)(C)c2c(C(F)(F)F)n[nH]c21 [Example 14] | > 6.70
CC(C)OC(=O)C1=CN(C(=O)c2ccc(F)cc2F)CC(C)(C)c2c(C(F)(F)F)n[nH]c21 [Example 16] | > 6.70
CC(C)OC(=O)C1=CN(C(=O)c2ccc(F)cc2)CC(C)(C)c2c(C(F)(F)F)n[nH]c21 [Example 17] | > 6.70
CCCc1n[nH]c2c1C(C)(C)CN(C(=O)c1cccnc1)C=C2C(=O)OC(C)C [Example 18] | 6.00 to 6.70
CCCc1n[nH]c2c1C(C)(C)CN(C(=O)c1ccccn1)C=C2C(=O)OC(C)C [Example 19] | 5.00 to 6.00
CCCc1n[nH]c2c1C(C)(C)CN(C(=O)c1ccncc1)C=C2C(=O)OC(C)C [Example 20] | 6.00 to 6.70
CCCc1n[nH]c2c1C(C)(C)CN(C(=O)c1ccc(C(F)(F)F)nc1)C=C2C(=O)OC(C)C [Example 21] | 6.00 to 6.70
CC(C)OC(=O)C1=CN(C(=O)N2CCN(C)CC2)CC(C)(C)c2c(C(F)(F)F)n[nH]c21 [Example 22] | 6.00 to 6.70
CC(C)OC(=O)C1=CN(C(=O)c2cccc(F)c2)CC(C)(C)c2c(C(F)(F)F)n[nH]c21 [Example 23] | > 6.70
CC(C)OC(=O)C1=CN(C(=O)c2ccc(F)c(F)c2)CC(C)(C)c2c(C(F)(F)F)n[nH]c21 [Example 24] | > 6.70
CC(C)Cc1n[nH]c2c1C(C)(C)CN(C(=O)c1cccc(F)c1)C=C2C(=O)OC(C)C [Example 25] | > 6.70
CC(C)Cc1n[nH]c2c1C(C)(C)CN(C(=O)c1ccc(F)c(F)c1)C=C2C(=O)OC(C)C [Example 26] | > 6.70

SMILES | pEC50
COCCc1n[nH]c2c1C(C)(C)CN(C(=O)c1cccc(F)c1)C=C2C(=O)OC(C)C [Example 27] | > 6.70
COCCc1n[nH]c2c1C(C)(C)CN(C(=O)c1ccc(F)c(F)c1)C=C2C(=O)OC(C)C [Example 28] | > 6.70
CCCCc1n[nH]c2c1C(C)(C)CN(C(=O)N1CCOCC1)C=C2C(=O)OC(C)C [Example 29] | > 6.70
CCCCc1n[nH]c2c1C(C)(C)CN(C(=O)C1CCCCC1)C=C2C(=O)OC(C)C [Example 30] | 6.00 to 6.70
CCCCc1n[nH]c2c1C(C)(C)CN(C(=O)c1ccc(F)c(F)c1)C=C2C(=O)OC(C)C [Example 31] | > 6.70
CCCCc1n[nH]c2c1C(C)(C)CN(C(=O)C1CCOCC1)C=C2C(=O)OC(C)C [Example 32] | 6.00 to 6.70
CCCCc1n[nH]c2c1C(C)(C)CN(C(=O)c1cccc(F)c1)C=C2C(=O)OC(C)C [Example 33] | > 6.70
CCCc1n[nH]c2c1C(C)(C)CN(C(=O)N1CCOCC1)C=C2C(=O)OC(C)C [Example 34] | 6.00 to 6.70
CCCc1n[nH]c2c1C(C)(C)CN(C(=O)C1CCCCC1)C=C2C(=O)OC(C)C [Example 35] | > 6.70
CCCc1n[nH]c2c1C(C)(C)CN(C(=O)C1CCOCC1)C=C2C(=O)OC(C)C [Example 36] | 6.00 to 6.70
CCCc1n[nH]c2c1C(C)(C)CN(C(=O)c1cccc(F)c1)C=C2C(=O)OC(C)C [Example 37] | > 6.70
CCCc1n[nH]c2c1C(C)(C)CN(C(=O)c1ccc(F)c(F)c1)C=C2C(=O)OC(C)C [Example 38] | > 6.70
CCCCc1n[nH]c2c1C(C)(C)CN(C(=O)c1ccc(F)c(F)c1)C=C2C(=O)OCC [Example 39] | > 6.70
CCCc1n[nH]c2c1C(C)(C)CN(C(=O)c1ccc(F)c(F)c1)C=C2C(=O)OCC [Example 40] | > 6.70
CCOC(=O)C1=CN(C(=O)c2ccc(F)c(F)c2)CC(C)(C)c2c(CC)n[nH]c21 [Example 41] | > 6.70
CC(C)OC(=O)C1=CN(C(=O)c2ccc(Cl)c(Cl)c2)CC(C)(C)c2cn[nH]c21 [Example 42] | > 6.70
CCOC(=O)C1=CN(C(=O)c2ccc3ccccc3c2)CC(C)(C)c2cn[nH]c21 [Example 43] | > 6.70
CCOC(=O)C1=CN(C(=O)c2cc3ccccc3s2)CC(C)(C)c2cn[nH]c21 [Example 44] | 6.00 to 6.70
CC(C)NC(=O)C1=CN(C(=O)c2ccc(F)c(F)c2)CC(C)(C)c2cn[nH]c21 [Example 45] | 6.00 to 6.70
CC(C)OC(=O)C1=CN(C(=O)c2ccc(F)c(F)c2)CC(C)(C)c2cn[nH]c21 [Example 46] | 6.00 to 6.70
CCOC(=O)C1=CN(C(=O)c2ccc3c(c2)OC(F)(F)O3)CC(C)(C)c2cn[nH]c21 [Example 47] | 5.00 to 6.00
CCOC(=O)C1=CN(C(=O)C2CCCCC2)CC(C)(C)c2cn[nH]c21 [Example 48] | 5.00 to 6.00
CCOC(=O)C1=CN(C(=O)c2cccc(F)c2)CC(C)(C)c2cn[nH]c21 [Example 49] | 6.00 to 6.70

— patent US10233187B2, “Fused bicyclic compounds for the treatment of disease” (AKARNA THERAPEUTICS, LTD., priority 2014, dated 2019)
